Key:
NDM-1 [1] = molecular target: T1, NDM-1 (Klebsiella pneumoniae, UniProt C7C422); test: Inhibition of purified class B carbapenemase NDM-1 (Ki, imipenem substrate); assay type: biochemical; details: NDM-1, substrate imipenem; read-out: Ki NDM-1, Imipenem
VIM-1 = molecular target: T2, VIM-1 (Pseudomonas aeruginosa, UniProt A0A0F7KYQ8); test: biochemical; details: cleavage of nitrocefin (200 uM) by VIM-1 supernatant
T2 construct: made in house; host or cells: ECM6711 strain carrying pUCP24-VIM-1 plasmid; culture supernatant used unpurified

[2] = molecular target: T3, purified class A, C and D enzymes (UniProt Q9F663); assay type: biochemical; details: read-out: Ki (KPC-2, NCF); purified KPC-2; nitrocefin reporter substrate
T3 construct: rows headed: Ki (KPC-2, NCF); other: purified KPC-2; nitrocefin reporter substrate

[3] = molecular target: purified class A, C and D enzymes (Enterobacter cloacae, UniProt P05364); assay type: biochemical; details: purified P99/AmpC of ECL; nitrocefin reporter substrate
purified class A, C and D enzymes (Enterobacter cloacae, UniProt P05364), sequence (P05364 21-381): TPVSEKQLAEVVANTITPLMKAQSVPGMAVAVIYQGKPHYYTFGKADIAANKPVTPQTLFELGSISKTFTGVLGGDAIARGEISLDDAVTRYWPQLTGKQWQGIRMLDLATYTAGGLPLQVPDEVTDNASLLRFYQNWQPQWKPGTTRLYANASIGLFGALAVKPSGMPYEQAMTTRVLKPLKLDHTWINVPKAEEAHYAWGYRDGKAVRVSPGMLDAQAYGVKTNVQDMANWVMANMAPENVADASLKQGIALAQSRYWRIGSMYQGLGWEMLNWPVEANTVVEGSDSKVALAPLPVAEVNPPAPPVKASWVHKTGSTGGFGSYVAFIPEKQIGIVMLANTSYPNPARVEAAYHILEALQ

[4] = molecular target: T4, purified class A, C and D enzymes (UniProt Q6XEC0); assay type: biochemical; details: read-out: Ki (OXA-48, NCF); purified OXA-48; nitrocefin reporter substrate
T4 construct: rows headed: Ki (OXA-48, NCF); other: purified OXA-48; nitrocefin reporter substrate

[5] = molecular target: T5, purified class A, C and D enzymes (UniProt P0AD64, L31Q/G234S/E235K, species not given); assay type: biochemical; details: read-out: Ki (SHV-12, NCF); purified SHV-12; nitrocefin reporter substrate
T5 construct: Ki (SHV-12, NCF); other: purified SHV-12; nitrocefin reporter substrate
T5 sequence (P0AD64 1-286 L31Q/G234S/E235K): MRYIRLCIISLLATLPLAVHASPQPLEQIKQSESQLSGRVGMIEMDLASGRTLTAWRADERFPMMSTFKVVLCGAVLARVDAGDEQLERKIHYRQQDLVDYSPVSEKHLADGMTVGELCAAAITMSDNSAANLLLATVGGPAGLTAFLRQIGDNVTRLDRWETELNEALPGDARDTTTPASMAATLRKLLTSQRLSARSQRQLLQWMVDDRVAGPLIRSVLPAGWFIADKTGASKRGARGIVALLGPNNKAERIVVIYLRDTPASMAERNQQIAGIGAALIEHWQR

[6] = molecular target: purified class A, C and D enzymes (Escherichia coli, UniProt Q9L5C7); assay type: biochemical; details: purified CTX-M-14; nitrocefin reporter substrate
purified class A, C and D enzymes (Escherichia coli, UniProt Q9L5C7), sequence (Q9L5C7 entry or part of it): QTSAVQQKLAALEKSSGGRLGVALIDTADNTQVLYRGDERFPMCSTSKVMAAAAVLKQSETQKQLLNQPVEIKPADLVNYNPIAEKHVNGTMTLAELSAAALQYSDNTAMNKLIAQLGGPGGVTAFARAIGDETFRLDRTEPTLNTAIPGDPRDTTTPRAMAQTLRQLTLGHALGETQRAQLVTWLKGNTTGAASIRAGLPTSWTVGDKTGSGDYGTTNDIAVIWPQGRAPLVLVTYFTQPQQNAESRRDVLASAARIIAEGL

NDM-1 [7] = molecular target: T1, NDM-1; test: biochemical; details: cleavage of imipenem (100 uM) by NDM-1; read-out: Ki, Imipenem

T1 sequence (C7C422 29-270, looked up, species assumed): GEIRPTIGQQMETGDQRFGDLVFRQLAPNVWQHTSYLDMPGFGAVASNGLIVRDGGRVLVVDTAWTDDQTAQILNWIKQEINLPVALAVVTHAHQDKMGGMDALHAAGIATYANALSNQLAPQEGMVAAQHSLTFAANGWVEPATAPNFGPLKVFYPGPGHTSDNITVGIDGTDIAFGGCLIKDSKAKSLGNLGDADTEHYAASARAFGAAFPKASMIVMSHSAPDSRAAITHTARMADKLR

SMILES	Ki (NDM-1 [1])	IC50 (VIM-1)	Ki [2]	Ki (P99/AmpC of ECL, NCF) [3]	Ki [4]	Ki [5]	Ki (CTX-M-14, NCF) [6]	Ki (NDM-1 [7])
COCCOc1ccc2c(c1C(=O)O)OB(O)[C@@H](Sc1nncs1)C2 [Compound 89, (3R)-2-hydroxy-7-(2-methoxyethoxy)-3-(1,3,4-thiadiazol-2-ylsulfanyl)-3,4-dihydro-1,2-benzoxaborinine-8-carboxylic acid]	10 to 100 nM	< 1000 nM	100 to 1000 nM	Z (Greater than 1 μM)	< 100 nM	< 100 nM	X (Less than 0.1 μM)	10 to 100 nM
CCOc1ccc2c(c1C(=O)O)OB(O)[C@@H](Sc1nnc(N)s1)C2 [Compound 83, (3R)-3-[(5-amino-1,3,4-thiadiazol-2-yl)sulfanyl]-7-ethoxy-2-hydroxy-3,4-dihydro-1,2-benzoxaborinine-8-carboxylic acid]	< 10 nM	< 1000 nM	100 to 1000 nM	Y (0.1 μM to 1 μM)	< 100 nM	< 100 nM	X (Less than 0.1 μM)	< 10 nM
COc1ccc2c(c1C(=O)O)OB(O)[C@@H](Sc1nncn1CCCCN)C2 [Compound 73, (3R)-3-[[4-(4-aminobutyl)-1,2,4-triazol-3-yl]sulfanyl]-2-hydroxy-7-methoxy-3,4-dihydro-1,2-benzoxaborinine-8-carboxylic acid]	10 to 100 nM	< 1000 nM	100 to 1000 nM	Z (Greater than 1 μM)	< 100 nM	< 100 nM	X (Less than 0.1 μM)	10 to 100 nM
COc1ccc2c(c1C(=O)O)OB(O)[C@@H](SCCN1CCNCC1)C2 [Compound 72, (3R)-2-hydroxy-7-methoxy-3-(2-piperazin-1-ylethylsulfanyl)-3,4-dihydro-1,2-benzoxaborinine-8-carboxylic acid]	> 100 nM	< 1000 nM	< 100 nM	Y (0.1 μM to 1 μM)	< 100 nM	< 100 nM	X (Less than 0.1 μM)	> 100 nM
COc1ccc2c(c1C(=O)O)OB(O)[C@@H](Sc1nnc(SCCN)s1)C2 [Compound 107, (3R)-3-[[5-(2-aminoethylsulfanyl)-1,3,4-thiadiazol-2-yl]sulfanyl]-2-hydroxy-7-methoxy-3,4-dihydro-1,2-benzoxaborinine-8-carboxylic acid]	< 10 nM	< 1000 nM	100 to 1000 nM	Y (0.1 μM to 1 μM)	< 100 nM	< 100 nM	X (Less than 0.1 μM)	< 10 nM
COc1ccc2c(c1C(=O)O)OB(O)[C@@H](Sc1nc(N)ns1)C2 [Compound 74, (3R)-3-[(3-amino-1,2,4-thiadiazol-5-yl)sulfanyl]-2-hydroxy-7-methoxy-3,4-dihydro-1,2-benzoxaborinine-8-carboxylic acid]	> 100 nM	< 1000 nM	< 100 nM	Y (0.1 μM to 1 μM)	< 100 nM	< 100 nM	X (Less than 0.1 μM)	> 100 nM
Nc1nnc(S[C@H]2Cc3ccc(-n4ccnn4)c(C(=O)O)c3OB2O)s1 [Compound 119, (3R)-3-[(5-amino-1,3,4-thiadiazol-2-yl)sulfanyl]-2-hydroxy-7-(triazol-1-yl)-3,4-dihydro-1,2-benzoxaborinine-8-carboxylic acid]	< 10 nM	< 1000 nM	> 1000 nM	Y (0.1 μM to 1 μM)	< 100 nM	100 to 1000 nM	X (Less than 0.1 μM)	< 10 nM

Reference: patent publication US10206937B2, “Boronic acid derivatives and therapeutic uses thereof” (Qpex Biopharma, Inc., priority 2014, dated 2019)
